According to patent US7855228B2, “Antibiotics targeting MreB” (The Board of Trustees of the Leland Stamford Junior …, priority 2005, dated 2010):
Values after ≈ are worked out from the molar mass of the structure shown.

Key:
E. coli MG1655 [1] = experiment: Determination of minimum inhibitory concentration (MIC); assay type: cell-based; conditions: Escherichia coli, MG1655, Example 2; methods as in Example 1; read-out: MIC E. coli
Method: (§1) Determination of minimum inhibitory concentration (MIC). MICs were also determined on Mueller Hinton agar plates (0.2% beef extract, 1.75% acid digest of casein, 0.15% soluble starch, 1.5% agar, pH 7.3).
(§2) Determination of MIC Minimal inhibitory concentrations (MICs) were determined using a standard 2-fold serial dilution format on L agar plates. Ten microliters of stationary culture diluted in 0.85% NaCl to 10^6 cells/ml were spotted on per plate. […] MICs were also determined on Mueller Hinton agar plates (0.2% beef extract, 1.75% acid digest of casein, 0.15% soluble starch, 1.5% agar, pH 7.3).

P. putida NBRC14164 = experiment: as above; assay type: cell-based, Pseudomonas putida; conditions: Pseudomonas putida, NBRC14164, Example 2; methods as in Example 1; read-out: MIC P. putida
Method: as §1, §2

S. typhimurium NBRC13245 = experiment: as above; assay type: cell-based, Salmonella typhimurium; conditions: Salmonella enterica, Example 2; methods as in Example 1; read-out: MIC S. typhimurium
Method: as §1, §2

B. subtilis 168 = experiment: as above; assay type: cell-based, Bacillus subtilis; conditions: Bacillus subtilis, 168, Example 2; methods as in Example 1; read-out: MIC B. subtilis
Method: as §1, §2

[2] = tested on: S. aureus subsp. aureus NBRC15035; experiment: as above; assay type: cell-based, Staphylococcus aureus; conditions: Staphylococcus aureus, NBRC15035, Example 2; methods as in Example 1; read-out: MIC S. aureus
Method: as §1, §2

E. coli MG1655 [3] = experiment: Microscopic observation of cell shape; assay type: cell-based; conditions: Example 2; methods as in Example 1
Method: Microscopic observation. E. coli K-12 strain MG1655 (F^− λ^−) was grown in Lennox broth containing 1% Polypepton, 0.5% yeast extract, 0.5% NaCl, and 0.1% glucose (pH 7.2). Cells spread on a slide glass were treated with methanol for 5 min and covered with poly-L-lysine. The fixed cells were observed by the differential interference contrast system through an Axioskop 2 microscope (Carl Zeiss Co., Ltd., Oberkochen, Germany). To observe the anucleate cells, cells were stained with a 4′,6-diamidino-2-phenylindole (DAPI) solution (5 μg/ml in saline) and then observed by the fluorescence phase-contrast combined method.
The effect of each compound on E. coli cell morphology was next examined.

SMILES | MIC (E. coli MG1655 [1]) | MIC (P. putida NBRC14164) | MIC (S. typhimurium NBRC13245) | MIC (B. subtilis 168) | MIC [2] | Shape (E. coli MG1655 [3])
N=C(N)SCc1c(Cl)cc(Cl)cc1Cl [2,4,6-Cl] | 100 µg/mL (≈ 371 µM) | > 100 µg/mL | > 100 µg/mL | 100 µg/mL (≈ 371 µM) | > 100 µg/mL | Sphere
N=C(N)SCc1c(F)cccc1F [2,6-F] | 50 µg/mL (≈ 247 µM) | > 100 µg/mL | 50 µg/mL (≈ 247 µM) | > 100 µg/mL | > 100 µg/mL | Sphere
N=C(N)SCc1cc(Cl)cc(Cl)c1 [3,5-Cl] | > 100 µg/mL | > 100 µg/mL | > 100 µg/mL | > 100 µg/mL | > 100 µg/mL | Sphere
N=C(N)SCc1ccc(Cl)nc1 [4-Cl Pyr] | 100 µg/mL (≈ 496 µM) | > 100 µg/mL | > 100 µg/mL | > 100 µg/mL | > 100 µg/mL | Sphere
N=C(N)SCc1ccccc1Br [Compound 2-Br] | 50 µg/mL (≈ 204 µM) | > 100 µg/mL | 50 µg/mL (≈ 204 µM) | > 100 µg/mL | > 100 µg/mL | Sphere
N=C(N)SCc1ccccc1C(F)(F)F [Compound 2-CF3] | > 100 µg/mL | > 100 µg/mL | > 100 µg/mL | > 100 µg/mL | > 100 µg/mL | Sphere
N=C(N)SCc1cccc(C(F)(F)F)c1 [Compound 3-CF3] | > 100 µg/mL | > 100 µg/mL | > 100 µg/mL | > 100 µg/mL | > 100 µg/mL | Sphere
N=C(N)SCc1cccc(Cl)c1 [Compound 3-Cl] | 50 µg/mL (≈ 249 µM) | > 100 µg/mL | > 100 µg/mL | 50 µg/mL (≈ 249 µM) | > 100 µg/mL | Sphere
N=C(N)SCc1cccc(F)c1 [Compound 3-F] | 50 µg/mL (≈ 271 µM) | > 100 µg/mL | > 100 µg/mL | 50 µg/mL (≈ 271 µM) | > 100 µg/mL | Sphere
N=C(N)SCc1ccc(C(F)(F)F)cc1 [Compound 4-CF3, S-(4-Trifluoromethyl-benzyl)-isothiourea] | 50 µg/mL (≈ 213 µM) | > 100 µg/mL | > 100 µg/mL | > 100 µg/mL | > 100 µg/mL | Sphere
Cc1ccc(CSC(=N)N)cc1 [Compound 4-CH3, S-(4-methyl-benzyl)-isothiourea] | 25 µg/mL (≈ 139 µM) | > 100 µg/mL | 50 µg/mL (≈ 277 µM) | > 100 µg/mL | > 100 µg/mL | Sphere
COc1ccc(CSC(=N)N)cc1 [Compound 4-MeO] | > 100 µg/mL | > 100 µg/mL | > 100 µg/mL | > 100 µg/mL | > 100 µg/mL | Sphere
N=C(N)SCc1ccc([N+](=O)[O-])cc1 [Compound 4-NO2, S-(4-Nitro-benzyl)-isothiourea] | 25 µg/mL (≈ 118 µM) | > 100 µg/mL | 50 µg/mL (≈ 237 µM) | 25 µg/mL (≈ 118 µM) | > 100 µg/mL | Sphere
CC1(C)S[C@@H]2[C@H](NC(=O)c3ccccc3)C(=O)N2[C@H]1C(=O)O [PCG, reference compound] | 50 µg/mL (≈ 156 µM) | > 100 µg/mL | 12.5 µg/mL (≈ 39 µM) | 0.0122 µg/mL (≈ 0.0381 µM) | 0.0977 µg/mL (≈ 0.305 µM) | Fil
CN(C)[C@@H]1C(O)=C(C(N)=O)C(=O)[C@@]2(O)C(O)=C3C(=O)c4c(O)cccc4[C@@](C)(O)C3CC12 (stereo partly drawn) [TC, reference compound] | – | – | – | – | – | Rod
I.Nc1nc(-c2ccccc2)cs1 [TZ, reference compound] | > 100 µg/mL | > 100 µg/mL | > 100 µg/mL | > 100 µg/mL | > 100 µg/mL | Rod
N=C(N)SCc1c(F)c(F)c(F)c(F)c1F [pentaF] | > 100 µg/mL | > 100 µg/mL | > 100 µg/mL | > 100 µg/mL | > 100 µg/mL | Sphere

Continued by falling MIC (E. coli MG1655 [1]), values first:

MIC (E. coli MG1655 [1]) | MIC (P. putida NBRC14164) | MIC (S. typhimurium NBRC13245) | MIC (B. subtilis 168) | MIC [2] | SMILES | Shape (E. coli MG1655 [3])
25 µg/mL (≈ 106 µM) | > 100 µg/mL | 25 µg/mL (≈ 106 µM) | 100 µg/mL (≈ 425 µM) | 25 µg/mL (≈ 106 µM) | N=C(N)SCc1cccc(Cl)c1Cl [2,3-Cl] | Sphere
25 µg/mL (≈ 136 µM) | > 100 µg/mL | 25 µg/mL (≈ 136 µM) | > 100 µg/mL | > 100 µg/mL | N=C(N)SCc1ccccc1F [Compound 2-F] | Sphere
12.5 µg/mL (≈ 53.2 µM) | > 100 µg/mL | 25 µg/mL (≈ 106 µM) | > 100 µg/mL | > 100 µg/mL | N=C(N)SCc1cc(Cl)ccc1Cl [2,5-Cl] | Sphere
12.5 µg/mL (≈ 53.2 µM) | > 100 µg/mL | 25 µg/mL (≈ 106 µM) | > 100 µg/mL | > 100 µg/mL | N=C(N)SCc1c(Cl)cccc1Cl [2,6-Cl] | Sphere
12.5 µg/mL (≈ 61.8 µM) | > 100 µg/mL | 25 µg/mL (≈ 124 µM) | 25 µg/mL (≈ 124 µM) | 100 µg/mL (≈ 494 µM) | N=C(N)SCc1ccc(F)c(F)c1 [3,4-F] | Sphere
12.5 µg/mL (≈ 62.3 µM) | > 100 µg/mL | 25 µg/mL (≈ 125 µM) | > 100 µg/mL | > 100 µg/mL | N=C(N)SCc1ccccc1Cl [Compound 2-Cl] | Sphere
12.5 µg/mL (≈ 67.8 µM) | > 100 µg/mL | 12.5 µg/mL (≈ 67.8 µM) | 50 µg/mL (≈ 271 µM) | 100 µg/mL (≈ 543 µM) | N=C(N)SCc1ccc(F)cc1 [Compound 4-F, S-(4-Fluoro-benzyl)-isothiourea] | Sphere
12.5 µg/mL (≈ 42.8 µM) | > 100 µg/mL | 25 µg/mL (≈ 85.6 µM) | > 100 µg/mL | > 100 µg/mL | N=C(N)SCc1ccc(I)cc1 [Compound 4-I, S-(4-Iodo-benzyl)-isothiourea] | Sphere
6.25 µg/mL (≈ 19.3 µM) | 50 µg/mL (≈ 155 µM) | 6.25 µg/mL (≈ 19.3 µM) | 3.13 µg/mL (≈ 9.69 µM) | 12.5 µg/mL (≈ 38.7 µM) | O=C(N[C@H](CO)[C@H](O)c1ccc([N+](=O)[O-])cc1)C(Cl)Cl [CP, reference compound] | Rod
3.13 µg/mL (≈ 8.96 µM) | > 100 µg/mL | 1.56 µg/mL (≈ 4.46 µM) | 0.0488 µg/mL (≈ 0.14 µM) | 0.195 µg/mL (≈ 0.558 µM) | CC1(C)S[C@@H]2[C@H](NC(=O)C(N)c3ccccc3)C(=O)N2[C@H]1C(=O)O (stereo partly drawn) [ABPC, reference compound] | Fil
3.13 µg/mL (≈ 12.8 µM) | > 100 µg/mL | 6.25 µg/mL (≈ 25.5 µM) | > 100 µg/mL | > 100 µg/mL | N=C(N)SCc1ccc(Br)cc1 [Compound 4-Br, S-(4-Bromo-benzyl)-isothiourea] | Sphere
1.56 µg/mL (≈ 6.63 µM) | > 100 µg/mL | 1.56 µg/mL (≈ 6.63 µM) | > 100 µg/mL | > 100 µg/mL | N=C(N)SCc1ccc(Cl)cc1Cl [2,4-Cl, S-(2,4-Dichloro-benzyl)-isothiourea] | Sphere
0.78 µg/mL (≈ 3.08 µM) | > 100 µg/mL | 12.5 µg/mL (≈ 49.4 µM) | 12.5 µg/mL (≈ 49.4 µM) | > 100 µg/mL | N=C(N)SCc1cc(F)c(Cl)cc1Cl [2,4-Cl 5-F, S-(2,4-Dichloro, and 5-fluoro-benzyl)-isothiourea] | Sphere
0.0244 µg/mL (≈ 0.0622 µM) | 0.391 µg/mL (≈ 0.996 µM) | 0.0488 µg/mL (≈ 0.124 µM) | 0.0244 µg/mL (≈ 0.0622 µM) | 0.0488 µg/mL (≈ 0.124 µM) | CC1CN(c2c(F)c(N)c3c(=O)c(C(=O)O)cn(C4CC4)c3c2F)CC(C)N1 (stereo not drawn) [SPFX, reference compound] | –
